Measured values as given in patent US9260481B2, “Peptide derivatives as antibiotics” (priority 2011, dated 2016).
Values after ≈ are worked out from the molar mass of the structure shown. Read-outs that look alike come from different tables or passages of the source. Numbered stars: 1 amine (or outer) side, 2 acyl side, 3 side chain; on linkers, the order of the positions; unused ones are H or OH. Square brackets hold non-standard residues; d marks the D form. Peptide text beside a SMILES is read from it. * marks the point of attachment. ξ: configuration not given here. X1 = NCC(O)CCC(N[*:1])C(=O)[*:2]; ΔZArg = N=C(N)NCC/C=C(\N)C(=O)O; ξDab(3-OH) = NCC(O)C(N)C(=O)O; Orn = NCCC[CH](N)C(=O)O; NH(CH2)4NH2 = NCCCCN*

Experiments:
Acinetobacter baumannii = test system: Acinetobacter baumannii
Procedure: (§1) The minimal inhibitory concentrations (MIC) were determined according to the Clinical and Laboratory Standards Institute (CLSI) conditions guidelines detailed in Table 7. Assays were performed in triplicate.
(§2) Preparation of Inocula. Five to 10 well-isolated colonies were picked and resuspended in 3 ml sterile saline. The inoculum was re-suspended by vigorous shaking on a vortex mixer for 15 s. Turbidity was adjusted to McFarland standard 0.5 ([…]). The inoculum was further diluted in the appropriate media (Table 7) to give a final inoculum in each well of ˜2-8×10^5 CFU/ml.
(§3) Addition of Test Article. Stock solutions of Odilomycin A or comparator were diluted in the appropriate media to give a maximum starting concentration of 50 μg/mL in the assay. 50 μL of medium was dispensed into each well in columns two to 12 of a 96 well plate. 100 μL of the appropriate test compound solution (100 μg/mL) was dispensed into each well in column one. In the case of M. catarrhalis, M. haemolytica and P. multocida these values were doubled (a final assay volume of 200 μL was used). […] Columns 11 and 12 served as positive (no drug or test article, inoculum added), and negative (no drug, test article, or inoculum added) growth controls respectively.
(§4) Addition of Bacterial Strains. 50 μL of each inoculum suspension was added to the appropriate wells, resulting in a final volume of 100 μL consisting of 50 μL diluted compound or diluents, and 50 μL of inoculum or broth alone.

Bacillus subtilis = test system: Bacillus subtilis
Procedure: as §1, §2, §3, §4

Enterobacter cloacae = test system: Enterobacter cloacae
Procedure: as §1, §2, §3, §4

Enterococcus faecalis = test system: Enterococcus faecalis
Procedure: as §1, §2, §3, §4

Enterococcus faecium = test system: Enterococcus faecium
Procedure: as §1, §2, §3, §4

Escherichia coli = test system: Escherichia coli
Procedure: as §1, §2, §3, §4

Haemophilus influenzae = test system: Haemophilus influenzae
Procedure: as §1, §2, §3, §4

Klebsiella oxytoca = test system: Klebsiella oxytoca
Procedure: as §1, §2, §3, §4

Klebsiella pneumoniae = settings: K. pneumoniae
Procedure: as §1, §2, §3, §4

Mannheimia haemolytica = test system: Mannheimia haemolytica
Procedure: as §1, §2, §3, §4

Moraxella catarrhalis = test system: Moraxella catarrhalis
Procedure: as §1, §2, §3, §4

Pasteurella multocida = test system: Pasteurella multocida
Procedure: as §1, §2, §3, §4

Proprionibacterium acnes = settings: P. acnes ATCC 6919
Procedure: as §1, §2, §3, §4

Pseudomonas aeruginosa = settings: for Antibacterial activity (MIC): unit not given in table (MICs in μg/mL)
Procedure: as §1, §2, §3, §4

[1] = test system: Staphylococcus epidermidis
Procedure: as §1, §2, §3, §4

[2] = test system: Stenotrophomonas maltophilia
Procedure: as §1, §2, §3, §4

Streptococcus pneumonia = test system: Streptococcus pneumonia
Procedure: as §1, §2, §3, §4

Streptococcus pyogenes = test system: Streptococcus pyogenes
Procedure: as §1, §2, §3, §4

S. aureus ATCC 13709 [3] = format: cell-based, Staphylococcus aureus; settings: ATCC 13709, 24 h
Procedure: (§5) Minimal bactericidal concentrations (MBCs) were established by extending the MIC procedure to the evaluation of bactericidal activity. After 24 hours, 10 μL were drawn from the wells, serially diluted and then spotted onto suitable agar plates. The plates were incubated at 37° C. overnight. […] All the experiments were done in triplicate.

P. aeruginosa ATCC 27853 [4] = format: cell-based, Pseudomonas aeruginosa; settings: ATCC 27853, 24 h
Procedure: as §5

S. aureus ATCC 13709 [5] = experiment: MBC in presence of human serum; format: cell-based, Staphylococcus aureus; settings: for MBC S. aureus ATCC 13709: unit not given (Table 10: μg/mL)
Procedure: as §5
MBCs were also determined in presence of 50% and 95% (v/v) of human serum to assess protein binding.

P. aeruginosa ATCC 27853 [6] = experiment: Bacterial killing curves (time-to-kill); format: cell-based, Pseudomonas aeruginosa; settings: growing P. aeruginosa ATCC 27853, at four-fold the MIC
Procedure: Bacterial killing curves were carried out by inoculating S. aureus ATCC 13709 and P. aeruginosa ATCC 27853 with Odilomycin A concentration equal to four-fold the MIC. […] S. aureus and P. aeruginosa inoculi were prepared from colonies grown overnight in MHB. Antibiotics concentrations in the flask were adjusted in MHB according to the desired concentration. Culture tubes containing 10 mL were inoculated with S. aureus or P. aeruginosa at an approximate inoculum of 10^5 CFU/mL. Samples were drawn and bacteria were counted at 0, 1, 2, 3, 4, 6 and 24 h of incubation at 37° C. Thus, after vortexing the culture tubes, two 50 μL samples were removed and serially diluted with MHB. After each dilution step, 20 μL was plated onto LB agar plates, which were incubated for 24 h at 37° C. Afterwards the colonies were counted and back-extrapolated to the original volume to determine the initial concentration (CFU/mL).

S. aureus ATCC 25923 = format: cell-based, Staphylococcus aureus; settings: ATCC 25923
Excerpt: Vancomycin, rifampicin, kanamycin, gentamicin, ampicillin, ciprofloxacin and tetracycline (Sigma-Aldrich) were provided as standard powders by the manufacturers.

## N=C(N)NCC/C=C(\NC(=O)C(CCC(O)CN)NC(=O)C(Cc1cnc[nH]1)NC(=O)C1CCCN1C(=O)C(CCCN)NC(=O)CNC(=O)C(NC(=O)C(NC(=O)C(N)CCCCN)C(O)CN)C(O)CN)C(=O)NC(CCC(O)CN)C(=O)NCCCCN (stereo not drawn) [Odilomycin A, Lys-(3-hydroxy-2,4-diaminobutanoic acid)-(3-hydroxy-2,4-diaminobutanoic acid)-Gly-Ornithine-Pro-His-(5-hydroxylysine)-(2,3-dehydroarginine)-(5-hydroxylysine)-(1,4-diaminobutane)] (H-K[ξDab(3-OH)][ξDab(3-OH)]G[Orn]PH[X1][ΔZArg][X1]-{NH(CH2)4NH2}; configuration not given here)
Acinetobacter baumannii
  MIC: 6.25 mg/L (≈ 4.82 µM)
  MICs: < 10 µg/mL
Bacillus subtilis
  MIC: <0.20 mg/L
  MICs: < 1 µg/mL
Enterobacter cloacae
  MIC: 1.56 mg/L (≈ 1.2 µM)
  MICs: < 10 µg/mL
Enterococcus faecalis
  MIC: >50.0 mg/L
Enterococcus faecalis; E. faecalis
  antibacterial activity: Weak or no antibacterial activity
Enterococcus faecium
  MIC: 25.0 mg/L (≈ 19.3 µM)
Enterococcus faecium; E. faecium
  antibacterial activity: Weak or no antibacterial activity
Escherichia coli
  MICs: < 10 µg/mL
Escherichia coli; E. coli CTX-M14 clinical isolate AEC7
  MIC: 3.13 mg/L (≈ 2.41 µM)
Escherichia coli; E. coli CTX-M15 clinical isolate MEC23
  MIC: 3.13 mg/L (≈ 2.41 µM)
Haemophilus influenzae
  MIC: 12.5 mg/L (≈ 9.64 µM)
Klebsiella oxytoca
  MIC: 0.39 mg/L (≈ 0.301 µM)
Klebsiella oxytoca; K. oxytoca
  antibacterial activity: strong
Klebsiella pneumoniae
  antibacterial activity: strong
Mannheimia haemolytica
  MIC: 50.0 mg/L (≈ 38.6 µM)
Moraxella catarrhalis
  MIC: 1.56 mg/L (≈ 1.2 µM)
  MICs: < 10 µg/mL
Pasteurella multocida
  MIC: 25.0 mg/L (≈ 19.3 µM)
Proprionibacterium acnes
  MIC: 3.13 mg/L (≈ 2.41 µM)
Pseudomonas aeruginosa
  MIC: 3.12 mg/L (≈ 2.41 µM)
  MICs: < 10 µg/mL
Pseudomonas aeruginosa; P. aeruginosa ATCC 27853
  MIC: 3.13 mg/L (≈ 2.41 µM)
Pseudomonas aeruginosa; P. aeruginosa multiresistant clinical isolate 5618
  Antibacterial activity (MIC): 6.25
Pseudomonas aeruginosa; P. aeruginosa multiresistant clinical isolate 35170
  Antibacterial activity (MIC): >50
Pseudomonas aeruginosa; P. aeruginosa multiresistant clinical isolate 42162
  Antibacterial activity (MIC): 25
Pseudomonas aeruginosa; P. aeruginosa multiresistant clinical isolate 401681
  Antibacterial activity (MIC): 25
Pseudomonas aeruginosa; P. aeruginosa multiresistant clinical isolate 512232
  Antibacterial activity (MIC): 3.12
[1]
  MIC: <0.20 mg/L
  MICs: < 1 µg/mL
[2]
  MIC: 6.25 mg/L (≈ 4.82 µM)
  MICs: < 10 µg/mL
Streptococcus pneumonia
  MIC: >50.0 mg/L
Streptococcus pneumonia; S. pneumoniae
  antibacterial activity: Weak or no antibacterial activity
Streptococcus pyogenes
  MIC: 50.0 mg/L (≈ 38.6 µM)
Streptococcus pyogenes; S. pyogenes
  antibacterial activity: Weak or no antibacterial activity
S. aureus ATCC 13709 [3]
  MBC: 0.78 mg/L (≈ 0.602 µM)
P. aeruginosa ATCC 27853 [4]
  MBC: 6.25 mg/L (≈ 4.82 µM)
S. aureus ATCC 13709 [5]; 50% and 95% (v/v) human serum, S. aureus ATCC 13709
  effect of serum proteins on antibacterial activity: weakly affected
S. aureus ATCC 13709 [5]; Serum 0 % (v/v)
  MBC S. aureus ATCC 13709: 0.78
S. aureus ATCC 13709 [5]; human serum 50 % (v/v)
  MBC S. aureus ATCC 13709: 1.56
S. aureus ATCC 13709 [5]; human serum 95 % (v/v)
  MBC S. aureus ATCC 13709: 1.56
P. aeruginosa ATCC 27853 [6]
  Time to kill 100% of bacteria: ≤ 2 h
S. aureus ATCC 25923
  MIC antibiotic alone: 0.39 mg/L (≈ 0.301 µM)
